Experimental data: PubChem BioAssay (NCI)
Several values for one entry are separate records, joined by “and”; a condition that tells them apart may be missing. Equal entries are not always repeated.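 Where inhibition never reached the appropriate level, the endpoint shown equals the highest concentration tested. Otherwise, values were interpolated linearly from a five-concentration, 48-hour dose response in 96-well plates. GI50 is the concentration that inhibits growth by half. TGI marks complete inhibition of growth.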 Where a SMILES comes first, the peptide text is derived from it. The star is where a group is joined. Boc = CC(C)(C)OC(=O)*

Legend:
Assay in all cases: DTP human tumour cell line panel, 48 h
ACHN renal = tested on: ACHN renal
HCC-2998 colon = tested on: HCC-2998 colon
HCT-116 colon = tested on: HCT-116 colon
HOP-92 NSCLC = tested on: HOP-92 NSCLC
HS 578T breast = tested on: HS 578T breast
HT29 colon = tested on: HT29 colon
MDA-MB-231 breast = tested on: MDA-MB-231 breast
NCI-H226 lung = tested on: NCI-H226 lung
OVCAR-3 ovarian = tested on: OVCAR-3 ovarian
RXF 393 renal = tested on: RXF 393 renal
SK-MEL-5 melanoma = tested on: SK-MEL-5 melanoma
SNB-75 CNS = tested on: SNB-75 CNS
TK-10 renal = tested on: TK-10 renal

Row | Structure (SMILES) | TGI (ACHN renal) | TGI (HCC-2998 colon) | TGI (HCT-116 colon) | TGI (HOP-92 NSCLC) | TGI (HS 578T breast) | TGI (HT29 colon) | TGI (MDA-MB-231 breast) | TGI (NCI-H226 lung) | TGI (OVCAR-3 ovarian) | TGI (RXF 393 renal) | TGI (SK-MEL-5 melanoma) | TGI (SNB-75 CNS) | TGI (TK-10 renal) | GI50 (ACHN renal) | GI50 (HCC-2998 colon) | GI50 (HOP-92 NSCLC) | GI50 (MDA-MB-231 breast) | GI50 (OVCAR-3 ovarian) | GI50 (TK-10 renal)
1 | CN(CCC#N)c1ccc(/C=C2\SC(=S)NC2=O)cc1 | > 100 µM | > 100 µM | > 100 µM | > 100 µM | > 100 µM | > 100 µM | > 100 µM | > 100 µM | 67.9 µM | 96.9 µM | > 100 µM | > 100 µM | > 100 µM |  |  |  |  |  | 
2 | Cc1ccc([C@@H]2[C@@H](C(=O)c3ccccn3)[C@H](c3ccc(C)cc3)C[C@](O)(c3ccccn3)[C@H]2C(=O)c2ccccn2)cc1 | > 40.4 µM | > 100 µM | > 100 µM | > 100 µM | > 100 µM | > 100 µM | > 100 µM | > 100 µM | > 64.4 µM | > 100 µM | > 100 µM | > 100 µM | > 100 µM |  |  |  |  |  | 
3 | COc1cccc2c(N)c3cccc(C(=O)NCCN(C)C)c3nc12 | 2.03 µM | 0.971 µM | 0.726 µM | 1.3 µM | 0.571 µM | 0.633 µM | 0.853 µM | 0.386 µM | 1.7 µM | 0.88 µM | 2.08 µM | 0.362 µM | 6.14 µM |  |  |  |  |  | 
4 | COc1ccc(C2CC(c3c(O)ccc4ccccc34)=NN2c2ccc([N+](=O)[O-])cc2[N+](=O)[O-])cc1OC (stereo not given) | 92.2 µM | > 100 µM | > 100 µM | 58.7 µM | > 89.7 µM | 38.3 µM | > 68.8 µM | 48.9 µM | 58.3 µM | > 71.1 µM | 30.2 µM | 70.8 µM | > 100 µM |  |  |  |  |  | 
5 | COCOC1/C=C/CCCC#C[C@H](C)C(=O)CC1 (stereo not given in full) | 27.8 µM | 28.9 µM | 5.99 µM | 19.2 µM | 46.4 µM | 13.6 µM | 17 µM | 35 µM | 15.2 µM | 23.4 µM | 21.7 µM | 25.3 µM | 28.6 µM |  |  |  |  |  | 
6 | COC(=O)C1(C(=O)OC)CC2=C(S(=O)(=O)c3ccccc3)C[C@H](S(=O)(=O)c3ccccc3)[C@H]2C1 | > 100 µM | 29.5 µM | > 100 µM | 55.9 µM | > 100 µM | > 100 µM | > 100 µM | > 100 µM | > 100 µM | 66.2 µM | > 100 µM | 93.6 µM | > 100 µM |  |  |  |  |  | 
7 | CC(=O)OCC1OC(OC(C)(C)CC/C=C(\C)[C@@H]2C/C=C(\C)CC/C=C(\C)CC2)C(O)C(O)C1OC(C)=O (stereo not given in full) | > 100 µM and 26.7 µM | > 100 µM and 35.9 µM | > 60.1 µM and 60.9 µM | > 100 µM and 35 µM | 30.5 µM | > 55.5 µM and 28.1 µM | > 100 µM and 38.6 µM | > 100 µM and 16.2 µM | > 100 µM and 28.6 µM | > 100 µM | > 83.7 µM and 34.6 µM | > 100 µM and 31.8 µM | > 100 µM and 38.3 µM | > 65.1 µM and 13.8 µM | 69.8 µM and 17.9 µM | > 81.2 µM and 17.5 µM | > 61.2 µM and 18.9 µM | 53.3 µM and 15.3 µM | > 100 µM and 20.6 µM
8 | O=C(O)c1cc2c(cc1CC(Cc1ccc3c(c1)CCC3)C(=O)O)CCC2 (stereo not given) | > 100 µM | > 100 µM | > 100 µM | > 100 µM | > 100 µM | > 100 µM | > 100 µM | > 100 µM | > 100 µM | > 100 µM | > 100 µM | > 100 µM | > 100 µM |  |  |  |  |  | 
9 | COC(=O)CNC(=O)C(Cc1ccccc1)NC(=O)C(CCSC)NC(=O)C(Cc1ccc(O)cc1)NC(=O)OC(C)(C)C (stereo not given) (Boc-YMFG-OMe; configuration not given here) | > 100 µM | 64.1 µM | > 100 µM | 74.1 µM | > 100 µM | > 100 µM | 52.8 µM | > 100 µM | 38.9 µM | > 100 µM | > 100 µM | > 100 µM | > 100 µM |  |  |  |  |  | 
10 | COc1cc(/C=C2/C(=O)N(C(=O)c3ccccc3O)N=C2C)cc(OC)c1OC | > 100 µM | > 87.8 µM | > 29 µM | > 83.9 µM | > 100 µM | > 100 µM | > 100 µM | > 100 µM | 18.7 µM | 8.74 µM | 33.6 µM | > 100 µM | > 100 µM |  |  |  |  |  | 
11 | Cc1c(-c2nc3ccccc3[nH]2)c(=O)n(-c2ccccc2)n1C | > 100 µM | > 100 µM | > 100 µM | > 100 µM | > 100 µM | > 100 µM | > 100 µM | > 100 µM | > 100 µM | > 100 µM | > 100 µM | > 100 µM | > 100 µM |  |  |  |  |  | 
12 | CN(C)CCCOC(=O)C(c1ccccc1)C1(O)CCSCC1 (stereo not given) | > 100 µM | > 100 µM | > 100 µM | > 100 µM | > 100 µM | > 100 µM | > 100 µM | > 100 µM | > 100 µM | > 100 µM | > 100 µM | > 100 µM | > 100 µM |  |  |  |  |  | 
13 | OC1C2[C@@H](O)CCCN2C[C@@H](O)[C@H]1O (stereo not given in full) | > 100 µM | > 100 µM | > 100 µM | > 100 µM | > 100 µM | > 100 µM | > 100 µM | > 100 µM | > 100 µM | > 100 µM | > 100 µM | > 100 µM | > 100 µM |  |  |  |  |  | 
